From the NIST ThermoML archive (doi:10.1021/je200415u)

Assay: mn = molality of the nth substance listed, in mol/kg
Conditions: 101 kPa, Liquid, METLER TOLEDO SevenEasy conductivity meter

O=[N+]([O-])[O-].O=[N+]([O-])[O-].O=[N+]([O-])[O-].[Ce+3] [cerium nitrate] + O
electrical conductivity [S/m]
Conditions | m1 = 0.5112 | m1 = 1.031 | m1 = 1.555 | m1 = 1.997 | m1 = 3.131 | m1 = 3.968 | m1 = 4.462
293.15 K | 6.618 | 8.513 | 8.217 | 7.244 | 4.309 | 2.67 | 1.912
298.15 K | 7.4 | 9.446 | 9.15 | 8.103 | 4.9 | 3.1 | 2.244
308.15 K | 8.78 | 11.24 | 10.9 | 9.78 | 6.136 | 4.018 | 2.96

O=[N+]([O-])[O-].O=[N+]([O-])[O-].O=[N+]([O-])[O-].[Y+3] [yttrium nitrate] + O
electrical conductivity [S/m]
Conditions | m1 = 0.4989 | m1 = 0.9965 | m1 = 1.497 | m1 = 1.982 | m1 = 2.947 | m1 = 3.945 | m1 = 4.957
293.15 K | 7.202 | 10.03 | 10.36 | 9.433 | 6.35 | 3.68 | 1.89
298.15 K | 8.339 | 11.6 | 12 | 10.9 | 7.421 | 4.4 | 2.28
308.15 K | 9.922 | 13.7 | 14.17 | 13.03 | 9.08 | 5.611 | 3.08

O=[N+]([O-])[O-].O=[N+]([O-])[O-].O=[N+]([O-])[O-].[Nd+3] [neodymium(III) nitrate] + O
electrical conductivity [S/m]
Conditions | m1 = 0.522 | m1 = 1.021 | m1 = 1.555 | m1 = 2.093 | m1 = 3.086 | m1 = 4.124 | m1 = 4.297
293.15 K | 6.78 | 8.78 | 8.65 | 7.44 | 4.708 | 2.521 | 2.219
298.15 K | 7.48 | 9.66 | 9.545 | 8.27 | 5.329 | 2.931 | 2.623
308.15 K | 8.97 | 11.5 | 11.44 | 10.01 | 6.65 | 3.821 | 3.422
